Results taken from patent publication EP4691482A1, “LONG-ACTING CALCITONIN ANALOG” (Chengdu Aoda Biotechnology Co., Ltd., priority 2023, dated 2024).

Target: T1, calcitonin receptors (CTR) (Homo sapiens, UniProt P30988)
T1 construct: expressed in transfected cells; host or cells: cAMP Hunter HEK293-CT-R Gs cell line (HEK293, stably transfected)
T1 sequence (P30988 25-474): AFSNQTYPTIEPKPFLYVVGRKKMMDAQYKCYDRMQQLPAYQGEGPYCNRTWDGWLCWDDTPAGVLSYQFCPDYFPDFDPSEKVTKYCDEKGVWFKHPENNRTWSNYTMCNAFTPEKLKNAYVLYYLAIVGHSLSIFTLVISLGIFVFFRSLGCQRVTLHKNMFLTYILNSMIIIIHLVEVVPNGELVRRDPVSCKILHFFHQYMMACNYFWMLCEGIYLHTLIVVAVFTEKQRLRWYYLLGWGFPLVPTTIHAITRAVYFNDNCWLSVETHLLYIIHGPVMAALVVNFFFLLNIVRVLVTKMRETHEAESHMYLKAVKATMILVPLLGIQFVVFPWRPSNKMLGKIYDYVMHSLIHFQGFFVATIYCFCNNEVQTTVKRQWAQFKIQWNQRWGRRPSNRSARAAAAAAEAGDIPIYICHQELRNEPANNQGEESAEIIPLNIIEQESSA
Test: cAMP determination (HTRF, cAMP Dynamic 2 Kit) in cAMP Hunter HEK293-CT-R Gs cell line
Type: cell-based
Conditions: HEK293 cell line stably expressing CT-R; intracellular cAMP, HTRF
Description: Upon activation by a ligand, Gas-coupled GPCRs can upregulate intracellular cAMP level, and cAMP, as a second messenger, can mediate a series of cellular responses. The cAMP Hunter HEK293-CT-R Gs cell line, which overexpresses Gas-coupled calcitonin receptors (CTR), was used. The binding of calcitonin (or an analog thereof) to the overexpressed CTR upregulates intracellular cAMP level. The amount of intracellular cAMP produced after activation by the calcitonin (or an analog thereof) was detected using a cAMP Dynamic 2 Kit to evaluate the biological activity of the calcitonin (or an analog thereof). HEK293 cell line stably expressing CT-R was used. Stably transfected cells were stimulated with various concentrations of agonists. The time-resolved fluorescence resonance energy signal from the cells after stimulation with different doses was measured using HTRF technology, from which the biological activity of the agonist was subsequently calculated.

**Q.** Which EC50 does the source give for `CC(C)C[C@H](NC(=O)[C@H](CCCCN)NC(=O)CNC(=O)[C@H](CC(C)C)NC(=O)[C@@H](NC(=O)[C@@H]1CSSC[C@H](N)C(=O)N[C@@H](CO)C(=O)N[C@@H](CC(N)=O)C(=O)N[C@@H](CC(C)C)C(=O)N[C@@H](CO)C(=O)N[C@@H]([C@@H](C)O)C(=O)N1)C(C)C)C(=O)N[C@@H](CO)C(=O)N[C@@H](CCC(N)=O)C(=O)N[C@@H](CCC(=O)O)C(=O)N[C@@H](CC(C)C)C(=O)N[C@@H](Cc1c[nH]cn1)C(=O)N[C@@H](CCCCNC(=O)CNC(=O)CNC(=O)[C@H](CO)NC(=O)CNC(=O)[C@H](CO)NC(=O)CNC(=O)CC[C@H](NC(=O)CCCCCCCCCCCCCCCCCCC(=O)O)C(=O)O)C(=O)N[C@@H](CC(C)C)C(=O)N[C@@H](CCC(N)=O)C(=O)N[C@H](C(=O)N[C@@H](Cc1ccc(O)cc1)C(=O)N1CCC[C@H]1C(=O)N[C@@H](CCCNC(=N)N)C(=O)N[C@H](C(=O)N[C@@H](CC(N)=O)C(=O)N[C@H](C(=O)NCC(=O)N[C@@H](CO)C(=O)NCC(=O)N[C@H](C(=O)N1CCC[C@H]1C(N)=O)[C@@H](C)O)[C@@H](C)O)[C@@H](C)O)[C@@H](C)O` [Compound 8] here?
**A.** 3.7 pM

**Q.** For `CC(C)C[C@H](NC(=O)[C@H](CCCCN)NC(=O)CNC(=O)[C@H](CC(C)C)NC(=O)[C@@H](NC(=O)[C@@H]1CSSC[C@H](N)C(=O)N[C@@H](CO)C(=O)N[C@@H](CC(N)=O)C(=O)N[C@@H](CC(C)C)C(=O)N[C@@H](CO)C(=O)N[C@@H]([C@@H](C)O)C(=O)N1)C(C)C)C(=O)N[C@@H](CO)C(=O)N[C@@H](CCC(N)=O)C(=O)N[C@@H](CCC(=O)O)C(=O)N[C@@H](CC(C)C)C(=O)N[C@@H](Cc1c[nH]cn1)C(=O)N[C@@H](CCCCNC(=O)CNC(=O)CNC(=O)[C@H](CO)NC(=O)CNC(=O)[C@H](CO)NC(=O)CNC(=O)[C@H](CO)NC(=O)CNC(=O)CC[C@H](NC(=O)CCCCCCCCCCCCCCCCCCC(=O)O)C(=O)O)C(=O)N[C@@H](CC(C)C)C(=O)N[C@@H](CCC(N)=O)C(=O)N[C@H](C(=O)N[C@@H](Cc1ccc(O)cc1)C(=O)N1CCC[C@H]1C(=O)N[C@@H](CCCNC(=N)N)C(=O)N[C@H](C(=O)N[C@@H](CC(N)=O)C(=O)N[C@H](C(=O)NCC(=O)N[C@@H](CO)C(=O)NCC(=O)N[C@H](C(=O)N1CCC[C@H]1C(N)=O)[C@@H](C)O)[C@@H](C)O)[C@@H](C)O)[C@@H](C)O` [Compound 9], which EC50 is on record?
**A.** 4.1 pM

**Q.** With `CC(C)C[C@H](NC(=O)[C@H](CCCCN)NC(=O)CNC(=O)[C@H](CC(C)C)NC(=O)[C@@H](NC(=O)[C@@H]1CSSC[C@H](N)C(=O)N[C@@H](CO)C(=O)N[C@@H](CC(N)=O)C(=O)N[C@@H](CC(C)C)C(=O)N[C@@H](CO)C(=O)N[C@@H]([C@@H](C)O)C(=O)N1)C(C)C)C(=O)N[C@@H](CO)C(=O)N[C@@H](CCC(N)=O)C(=O)N[C@@H](CCC(=O)O)C(=O)N[C@@H](CC(C)C)C(=O)N[C@@H](Cc1c[nH]cn1)C(=O)N[C@@H](CCCCNC(=O)CNC(=O)CNC(=O)CNC(=O)CNC(=O)CC[C@H](NC(=O)CCCCCCCCCCCCCCCCCCC(=O)O)C(=O)O)C(=O)N[C@@H](CC(C)C)C(=O)N[C@@H](CCC(N)=O)C(=O)N[C@H](C(=O)N[C@@H](Cc1ccc(O)cc1)C(=O)N1CCC[C@H]1C(=O)N[C@@H](CCCNC(=N)N)C(=O)N[C@H](C(=O)N[C@@H](CC(N)=O)C(=O)N[C@H](C(=O)NCC(=O)N[C@@H](CO)C(=O)NCC(=O)N[C@H](C(=O)N1CCC[C@H]1C(N)=O)[C@@H](C)O)[C@@H](C)O)[C@@H](C)O)[C@@H](C)O` [Compound 13] as the molecule, how does the EC50 read?
**A.** 3.5 pM

**Q.** For `CC(C)C[C@H](NC(=O)[C@H](CCCCN)NC(=O)CNC(=O)[C@H](CC(C)C)NC(=O)[C@@H](NC(=O)[C@@H]1CSSC[C@H](N)C(=O)N[C@@H](CO)C(=O)N[C@@H](CC(N)=O)C(=O)N[C@@H](CC(C)C)C(=O)N[C@@H](CO)C(=O)N[C@@H]([C@@H](C)O)C(=O)N1)C(C)C)C(=O)N[C@@H](CO)C(=O)N[C@@H](CCC(N)=O)C(=O)N[C@@H](CCC(=O)O)C(=O)N[C@@H](CC(C)C)C(=O)N[C@@H](Cc1c[nH]cn1)C(=O)N[C@@H](CCCCNC(=O)COCCOCCNC(=O)COCCOCCNC(=O)CC[C@H](NC(=O)CCCCCCCCCCCCCCCCC(=O)O)C(=O)O)C(=O)N[C@@H](CC(C)C)C(=O)N[C@@H](CCC(N)=O)C(=O)N[C@H](C(=O)N[C@@H](Cc1ccc(O)cc1)C(=O)N1CCC[C@H]1C(=O)N[C@@H](CCCNC(=N)N)C(=O)N[C@H](C(=O)N[C@@H](CC(N)=O)C(=O)N[C@H](C(=O)NCC(=O)N[C@@H](CO)C(=O)NCC(=O)N[C@H](C(=O)N1CCC[C@H]1C(N)=O)[C@@H](C)O)[C@@H](C)O)[C@@H](C)O)[C@@H](C)O` [Compound 19, Cys-Ser-Asn-Leu-Ser-Thr-Cys-Val-Leu-Gly-Lys-Leu-Ser-Gln-Glu-Leu-His-Lys(AEEA-AEEA-γGlu-octadecanedioic acid)-Leu-Gln-Thr-Tyr-P ro-Arg-Thr-Asn-Thr-Gly-Ser-Gly-Thr-Pro-NH2], which EC50 is on record?
**A.** 3.7 pM

**Q.** `CC(C)C[C@H](NC(=O)[C@H](CCCCN)NC(=O)CNC(=O)[C@H](CC(C)C)NC(=O)[C@@H](NC(=O)[C@@H]1CSSC[C@H](N)C(=O)N[C@@H](CO)C(=O)N[C@@H](CC(N)=O)C(=O)N[C@@H](CC(C)C)C(=O)N[C@@H](CO)C(=O)N[C@@H]([C@@H](C)O)C(=O)N1)C(C)C)C(=O)N[C@@H](CO)C(=O)N[C@@H](CCC(N)=O)C(=O)N[C@@H](CCC(=O)O)C(=O)N[C@@H](CC(C)C)C(=O)N[C@@H](Cc1c[nH]cn1)C(=O)N[C@@H](CCCCNC(=O)CNC(=O)CNC(=O)CNC(=O)CC[C@H](NC(=O)CCCCCCCCCCCCCCCCCCC(=O)O)C(=O)O)C(=O)N[C@@H](CC(C)C)C(=O)N[C@@H](CCC(N)=O)C(=O)N[C@H](C(=O)N[C@@H](Cc1ccc(O)cc1)C(=O)N1CCC[C@H]1C(=O)N[C@@H](CCCNC(=N)N)C(=O)N[C@H](C(=O)N[C@@H](CC(N)=O)C(=O)N[C@H](C(=O)NCC(=O)N[C@@H](CO)C(=O)NCC(=O)N[C@H](C(=O)N1CCC[C@H]1C(N)=O)[C@@H](C)O)[C@@H](C)O)[C@@H](C)O)[C@@H](C)O` [Compound 12] was tested. Which EC50 did it give?
**A.** 3.9 pM

Same assay, conditions: relative to Salmon Calcitonin = 100.0; HEK293 CT-R cAMP

**Q.** How did the “Relative Activity%” value turn out when `CC(C)C[C@H](NC(=O)[C@H](CCCCN)NC(=O)CNC(=O)[C@H](CC(C)C)NC(=O)[C@@H](NC(=O)[C@@H]1CSSC[C@H](N)C(=O)N[C@@H](CO)C(=O)N[C@@H](CC(N)=O)C(=O)N[C@@H](CC(C)C)C(=O)N[C@@H](CO)C(=O)N[C@@H]([C@@H](C)O)C(=O)N1)C(C)C)C(=O)N[C@@H](CO)C(=O)N[C@@H](CCC(N)=O)C(=O)N[C@@H](CCC(=O)O)C(=O)N[C@@H](CC(C)C)C(=O)N[C@@H](Cc1c[nH]cn1)C(=O)N[C@@H](CCCCNC(=O)COCCOCCOCCOCCOCCOCCNC(=O)CC[C@H](NC(=O)CCCCCCCCCCCCCCCCCCC(=O)O)C(=O)O)C(=O)N[C@@H](CC(C)C)C(=O)N[C@@H](CCC(N)=O)C(=O)N[C@H](C(=O)N[C@@H](Cc1ccc(O)cc1)C(=O)N1CCC[C@H]1C(=O)N[C@@H](CCCNC(=N)N)C(=O)N[C@H](C(=O)N[C@@H](CC(N)=O)C(=O)N[C@H](C(=O)NCC(=O)N[C@@H](CO)C(=O)NCC(=O)N[C@H](C(=O)N1CCC[C@H]1C(N)=O)[C@@H](C)O)[C@@H](C)O)[C@@H](C)O)[C@@H](C)O` [Compound 6, Cys-Ser-Asn-Leu-Ser-Thr-Cys-Val-Leu-Gly-Lys-Leu-Ser-Gln-Glu-Leu-His-Lys(PEG6CH2CO-yGlu-eicosanedioic acid)-Leu-Gln-Thr-Tyr-Pro-Arg-Thr-Asn-Thr-Gly-Ser-Gly-Thr-Pro-NH2] was run?
**A.** 172.7%

**Q.** How did the “Relative Activity%” value turn out when `CC(C)C[C@H](NC(=O)[C@H](CCCCN)NC(=O)CNC(=O)[C@H](CC(C)C)NC(=O)[C@@H](NC(=O)[C@@H]1CSSC[C@H](N)C(=O)N[C@@H](CO)C(=O)N[C@@H](CC(N)=O)C(=O)N[C@@H](CC(C)C)C(=O)N[C@@H](CO)C(=O)N[C@@H]([C@@H](C)O)C(=O)N1)C(C)C)C(=O)N[C@@H](CO)C(=O)N[C@@H](CCC(N)=O)C(=O)N[C@@H](CCC(=O)O)C(=O)N[C@@H](CC(C)C)C(=O)N[C@@H](Cc1c[nH]cn1)C(=O)N[C@@H](CCCCNC(=O)COCCOCCOCCNC(=O)CC[C@H](NC(=O)CCCCCCCCCCCCCCCCCCC(=O)O)C(=O)O)C(=O)N[C@@H](CC(C)C)C(=O)N[C@@H](CCC(N)=O)C(=O)N[C@H](C(=O)N[C@@H](Cc1ccc(O)cc1)C(=O)N1CCC[C@H]1C(=O)N[C@@H](CCCNC(=N)N)C(=O)N[C@H](C(=O)N[C@@H](CC(N)=O)C(=O)N[C@H](C(=O)NCC(=O)N[C@@H](CO)C(=O)NCC(=O)N[C@H](C(=O)N1CCC[C@H]1C(N)=O)[C@@H](C)O)[C@@H](C)O)[C@@H](C)O)[C@@H](C)O` [Compound 3, Cys-Ser-Asn-Leu-Ser-Thr-Cys-Val-Leu-Gly-Lys-Leu-Ser-Gln-Glu-Leu-His-Lys(PEG3CH2CO-yGlu-eicosanedioic acid)-Leu-Gln-Thr-Tyr-Pro-Arg-Thr-Asn-Thr-Gly-Ser-Gly-Thr-Pro-NH2] was run?
**A.** 256.8%
